In article PMC10999543, “Identification of kinase modulators as host-directed therapeutics against intracellular methicillin-resistant Staphylococcus aureus” (Frontiers in Cellular and Infection Microbiology, 2024):
Where two headings read alike, the source gives them in different places.

Experiments:
[1] = system: intracellular MRSA in HeLa cells; experiment: Gentamicin protection assay with CFU count in MRSA-infected HeLa cells; type: cell-based, Staphylococcus aureus; settings: 10 µM, MRSA-infected HeLa cells
Description: The cells were resuspended in cell culture medium without antibiotics, seeded with 10,000 cells/well into Costar flat-bottom 96-well plates (Corning, Amsterdam, the Netherlands), and were incubated overnight at 37°C/5% CO2. The next day, the bacteria were centrifuged at ≥1800 g for 15 min and resuspended in cold PBS + 5 mM ethylenediaminetetraacetic acid (EDTA). The number of CFUs present in the bacterial suspension was estimated from the optical density at 600 nm (OD600) by assuming 8x10^8 CFUs to be present in a bacterial suspension with OD600 = 1, based on prior titrations. The bacterial suspension was diluted in cell culture medium without antibiotics and added to the cells. Accuracy of the multiplicity of infection (MOI) was validated by plating serial dilutions of the MRSA inoculums on Difco TS agar plates (BD Biosciences). The calculated mean MOI throughout all experiments was 6.8 ± 4.6 (mean ± SD). Infected cells were centrifuged for 3 min at 150 g and incubated for 1 hour at 37°C/5% CO2. Next, the cells were incubated with fresh cell culture medium supplemented with 30 µg/ml gentamicin sulphate (Lonza BioWhittaker, Basel, Switzerland) for 15 min at 37°C/5% CO2 to kill residual extracellular bacteria. Infected cells were incubated overnight at 37°C/5% CO2 in cell culture medium in the presence of kinase inhibitors and 5 µg/ml gentamicin sulphate-containing medium to prevent the growth of extracellular bacteria. The solvent of the compounds, DMSO, was used at equal % v/v as a negative control. For the screen, each compound was tested in triplicate, on separate cell culture plates, resulting in triplicate values for each kinase inhibitor.
Infected cells were lysed in sterile water + 0.05% UltraPure SDS solution (Invitrogen, ThermoFisher Scientific) to release intracellular bacteria. Bacterial suspensions and lysates of cells infected with MRSA were 5-fold serially diluted and 10-μl drops were plated on square TS agar plates. The plates were left to dry and incubated overnight at 37°C/5% CO2.

HER4 = system: HER4; design: method as in Elkins et al., 2016; settings: PKIS1, Caliper assay, ref Elkins et al., 2016; cited from earlier work
intracellular MRSA = type: cell-based, Staphylococcus aureus; settings: for %GFP+ rep 1 / z-scoreMRSA+ rep 1: replicate 1; for %GFP+ rep 2 / z-scoreMRSA+ rep 2: replicate 2; for %GFP+ rep 3 / z-scoreMRSA+ rep 3: replicate 3; for z-scoreMRSA+ mean: mean of 3 replicates; for z-score GFP+: flow cytometry screen, 10 µM, HeLa cells
In short: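 Values are z-scores: GFP-positive HeLa percentage and event count per well against plate statistics, minus the mean DMSO z-score. Wells deviating two-fold from controls were left out of plate means. Infection was at a mean MOI of 6.8, with an overnight compound exposure.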

EGFR = system: EGFR; design: method as in Elkins et al., 2016; settings: PKIS1, Caliper assay, ref Elkins et al., 2016; cited from earlier work
HeLa cells = experiment: Compound screen by flow cytometry: HeLa cell count as surrogate readout of cell viability (z-scoreHeLa); type: cell-based, human; settings: for cell count rep 1 / z-scoreHeLa rep 1: replicate 1; for cell count rep 2 / z-scoreHeLa rep 2: replicate 2; for cell count rep 3 / z-scoreHeLa rep 3: replicate 3; for z-scoreHeLa mean: mean of 3 replicates
In short: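 The viability surrogate was the count of fixed HeLa cells by flow cytometry, converted to z-scores against DMSO controls with values deviating two-fold excluded. Before counting, cells had been infected with MRSA for 1 h and cleared of extracellular bacteria with gentamicin. They were then exposed overnight to kinase inhibitors in triplicate.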

HER2 = system: HER2; design: method as in Elkins et al., 2016; settings: PKIS1, Caliper assay, ref Elkins et al., 2016; cited from earlier work
[2] = PKIS compounds raw data, MRSA-infected HeLa cells
[3] = compound screen, MRSA-infected HeLa cells
[4] = PKIS compounds raw data, HeLa cell count
[5] = compound screen, HeLa cell count
[6] = PKIS compound screen, Yes/No call
[7] = PKIS compound screen, Yes/No call (effect without cell death)
[8] = PKIS compound screen raw data, MRSA-infected HeLa cells
[9] = PKIS compound screen, MRSA-infected HeLa cells
[10] = PKIS compound screen, Yes/No call on z-scoreMRSA+
[11] = PKIS compound screen raw data, HeLa cell count
[12] = PKIS compound screen, HeLa cell count
[13] = PKIS compound screen, Yes/No call on z-scoreHeLa

SMILES | CFU (% of DMSO) at 10 µM [1] | % inhibition at 1 µM HER4 (HER4) | %GFP+ rep 1 (intracellular MRSA; [2]) | %GFP+ rep 2 (intracellular MRSA; [2]) | %GFP+ rep 3 (intracellular MRSA; [2]) | % inhibition at 1 µM EGFR (EGFR) | cell count rep 1 (HeLa cells; [4]) | cell count rep 2 (HeLa cells; [4]) | cell count rep 3 (HeLa cells; [4]) | % inhibition at 1 µM HER2 (HER2) | effect (intracellular MRSA; [6]) | hit (intracellular MRSA; [7]) | z-scoreMRSA+ mean (intracellular MRSA; PKIS compound screen) | z-scoreMRSA+ rep 1 (intracellular MRSA; PKIS compound screen) | z-scoreMRSA+ rep 2 (intracellular MRSA; PKIS compound screen) | z-scoreMRSA+ rep 3 (intracellular MRSA; PKIS compound screen) | z-score GFP+ (intracellular MRSA) | cell death (HeLa cells; [6]) | z-scoreHeLa mean (HeLa cells; PKIS compound screen) | z-scoreHeLa rep 1 (HeLa cells; PKIS compound screen) | other results
CS(=O)(=O)CCNCc1ccc(-c2ccc3ncnc(Nc4ccc(OCc5ccccc5)c(Br)c4)c3c2)o1 [GW580496A] | 65.3 % of DMSO | 80% | 5.4% | 6.0% | 5.1% | 82% | 5658 | 6483 | 11366 | 74% |  |  |  |  |  |  |  |  |  |  | effect (intracellular MRSA; Yes/No call from z-scoreMRSA+): Yes; hit (intracellular MRSA; Yes/No: effect without cell death): Yes; z-scoreMRSA+ mean (intracellular MRSA; [3]): -2.73; z-scoreMRSA+ rep 1 (intracellular MRSA; [3]): -2.50; z-scoreMRSA+ rep 2 (intracellular MRSA; [3]): -2.51; z-scoreMRSA+ rep 3 (intracellular MRSA; [3]): -3.18; cell death (HeLa cells; Yes/No call from z-scoreHeLa): No; z-scoreHeLa mean (HeLa cells; [5]): 1.53; z-scoreHeLa rep 1 (HeLa cells; [5]): 0.80; z-scoreHeLa rep 2 (HeLa cells; [5]): 1.67; z-scoreHeLa rep 3 (HeLa cells; [5]): 2.11
[O-][S+]1CCN(Cc2ccc(-c3ccc4ncnc(Nc5ccc(OCc6ccccc6)c(F)c5)c4c3)o2)CC1 [GW576924A] | 137.9 % of DMSO | 75% | 7.1% | 6.2% | 6.8% | 82% | 3467 | 3479 | 7054 | 91% | Yes | Yes | -2.35 | -1.94 | -2.43 | -2.70 | -2.36 | No | -0.58 | -1.18 | z-scoreHeLa rep 2 (HeLa cells; PKIS compound screen): -0.60; z-scoreHeLa rep 3 (HeLa cells; PKIS compound screen): 0.0442
CS(=O)(=O)CCNCc1ccc(-c2ccc3ncnc(Nc4ccc(OCc5ccccc5)c(Cl)c4)c3c2)o1 [GW574783B] | 53.4 % of DMSO | 89% | 13.4% | 12.8% | 13.0% | 91% | 8853 | 8889 | 8965 | 75% | Yes | No and Yes | -2.62 | -2.66 | -2.54 | -2.65 | -2.30 | No | 1.91 | 1.69 | %GFP+ rep 1 (intracellular MRSA; [8]): 11.2%; %GFP+ rep 2 (intracellular MRSA; [8]): 11.2%; %GFP+ rep 3 (intracellular MRSA; [8]): 14.4%; z-scoreMRSA+ mean (intracellular MRSA; [9]): -1.99; z-scoreMRSA+ rep 1 (intracellular MRSA; [9]): -2.11; z-scoreMRSA+ rep 2 (intracellular MRSA; [9]): -2.20; z-scoreMRSA+ rep 3 (intracellular MRSA; [9]): -1.64; effect (intracellular MRSA; [10]): No; cell count rep 1 (HeLa cells; [11]): 17891; cell count rep 2 (HeLa cells; [11]): 35533; cell count rep 3 (HeLa cells; [11]): 50424; z-scoreHeLa mean (HeLa cells; [12]): 0.46; z-scoreHeLa rep 1 (HeLa cells; [12]): -0.34; z-scoreHeLa rep 2 (HeLa cells; [12]): 0.14; z-scoreHeLa rep 3 (HeLa cells; [12]): 1.58; cell death (HeLa cells; [13]): No; z-scoreHeLa rep 2 (HeLa cells; PKIS compound screen): 1.91; z-scoreHeLa rep 3 (HeLa cells; PKIS compound screen): 2.13
[O-][S+]1CCN(Cc2ccc(-c3ccc4ncnc(Nc5ccc(OCc6cccc(F)c6)c(Cl)c5)c4c3)o2)CC1 [GW576609A] |  | 91% |  |  |  | 84% |  |  |  | 80% |  | No |  |  |  |  |  |  |  |  | %GFP+ rep 1 (intracellular MRSA; [8]): 13.3%; %GFP+ rep 2 (intracellular MRSA; [8]): 14.3%; %GFP+ rep 3 (intracellular MRSA; [8]): 14.3%; z-scoreMRSA+ mean (intracellular MRSA; [9]): -1.46; z-scoreMRSA+ rep 1 (intracellular MRSA; [9]): -1.45; z-scoreMRSA+ rep 2 (intracellular MRSA; [9]): -1.27; z-scoreMRSA+ rep 3 (intracellular MRSA; [9]): -1.67; effect (intracellular MRSA; [10]): No; cell count rep 1 (HeLa cells; [11]): 27921; cell count rep 2 (HeLa cells; [11]): 36007; cell count rep 3 (HeLa cells; [11]): 40876; z-scoreHeLa mean (HeLa cells; [12]): 0.49; z-scoreHeLa rep 1 (HeLa cells; [12]): 1.18; z-scoreHeLa rep 2 (HeLa cells; [12]): 0.23; z-scoreHeLa rep 3 (HeLa cells; [12]): 0.0554; cell death (HeLa cells; [13]): No
